Test results taken from patent US20240016786A1, “GLUCOSIDASE INHIBITORS FOR THE TREATMENT AND PREVENTION OF PULMONARY INFECTIONS” (priority 2020, published 2024).
Values after ≈ are worked out from the molar mass of the structure shown. Read-outs that look alike come from different tables or passages of the source.

Experiments:
SARS-Cov-2 SA (B.1.351) = experiment: SARS-CoV-2 Virospot reduction assay (Viroclinics), Vero E6 cells; type: cell-based
SARS-Cov-2 UK (B.1.1.7) = experiment: as above; type: cell-based
SARS-CoV-2 [1] = experiment: SARS-CoV-2 Virospot reduction assay, (strain not specified); type: cell-based; details: for activity against strains of SARS-CoV-2: good in vitro activity e.g. IC50<100 μg/mL
[2] = system: SARS-Cov-2 Germany/BavPat1/2020; experiment: SARS-CoV-2 Virospot reduction assay (Viroclinics), Vero E6 cells; type: cell-based
Description: SARS-CoV-2 testing was carried out by the independent contract research organization Viroclinics, Netherlands, using the SARS—CoV-2 Virospot reduction assay. This is a high throughput assay to determine the IC50/IC90 (also termed EC50/EC90) of putative antiviral compounds as compared to other assay formats (such as traditional plaque count assays), and improved traceability from raw data to results. The assay measures drug or antibody-mediated reduction of virus propagation in cell monolayers, by virus-specific immunostaining and automated imaging of infected cells. Automated counting of the number of infected foci (i.e., “spots”) provides the raw data for IC50/IC90 calculations.
A serial dilution series of the test article is mixed with a fixed amount of virus and the virus/inhibitor is added to Vero E6 cells. Virus control wells without inhibitor and cell controls without drug and virus are included. Viral propagation is measured after 16-24 h incubation by TrueBlue immunostaining of infected cells and automated counting of viral “spots” (corresponding to area of viral growth and protein expression) and the IC50 value is calculated using 4 replicates.
Adherent cells were seeded in multi-well plates. Cell cultures were inoculated with a standardized amount of virus, in the absence and presence of serial compound dilutions, followed by 18-24 hours of incubation and an appropriate virus detection method (Immunostaining and count spots using a CTL Immunospot Image Analyser).
Virus signals were detected in presence of each compound concentration determine the 50% inhibitory concentration (IC50) and the 90% inhibitory concentration (IC90). The IC50 and IC90 values were calculated from the virus signals using the method described by Zielinska et al. (Virol J. 2005, 2(84)).
Remdesivir was used as a positive control.
Although cytotoxicity was not directly measured, the assay required intact cell monolayers to deliver a result. Severe cytotoxicity would be evident upon visual inspection and any deleterious effect of compound upon cell health is likely to negatively impact the formation of “spots”. This was not reported.

Huh7-hACE2 cells [3] = details: cited from earlier work
SARS-CoV-2 [4] = details: Huh7-hACE2 cells; cited from earlier work
[5] = Hygroscopicity observed on recovery of spray dried material; type: physicochemical; details: on collection/recovery after spray drying
SARS-CoV-1 = SARS-CoV-1 in vitro; cited from earlier work
cells in culture = details: cited from earlier work
Huh7-hACE2 cells [6] = details: cited from earlier work; remark: listed apart in the source
[7] = Severe acute respiratory syndrome coronavirus 2, Vero C1008, read-out: IC50
[8] = Severe acute respiratory syndrome coronavirus 2, Vero C1008, read-out: IC90
[9] = Severe acute respiratory syndrome coronavirus 2, Virospot reduction assay

Structure (SMILES)	activity against strains of SARS-CoV-2 (SARS-CoV-2 [1])	IC50 (SARS-Cov-2 SA (B.1.351); [7]) [µg/mL]	IC90 (SARS-Cov-2 SA (B.1.351); [8]) [µg/mL]	IC50 (SARS-Cov-2 UK (B.1.1.7); [7]) [µg/mL]	IC90 (SARS-Cov-2 UK (B.1.1.7); [8]) [µg/mL]	IC50 [2, 7] [µg/mL]	IC90 [2, 8] [µg/mL]	also measured
OC[C@@H]1[C@@H](O)[C@H](O)[C@@H](O)CN1CCCCCOCC12CC3CC(CC(C3)C1)C2 [AMP-DNM, N-adamantanemethyloxypentyl-1-deoxynojirimycin]	active against at least three strain	–	–	–	–	–	–	IC50 (SARS-Cov-2 SA (B.1.351)): 2.7 µg/mL (≈ 6.79 µM); IC90 (SARS-Cov-2 SA (B.1.351)): 24.8 µg/mL (≈ 62.4 µM); IC50 (SARS-Cov-2 UK (B.1.1.7)): 7.7 µg/mL (≈ 19.4 µM); IC90 (SARS-Cov-2 UK (B.1.1.7)): 34.4 µg/mL (≈ 86.5 µM); IC50 [2]: 8.3 µg/mL (≈ 20.9 µM); IC90 [2]: 28.6 µg/mL (≈ 71.9 µM)
C[C@H]1O[C@H](O[C@H]2[C@H](O)[C@@H](O)[C@@H](O[C@H]3[C@H](O)[C@@H](O)C(O)O[C@@H]3CO)O[C@@H]2CO)[C@H](O)[C@@H](O)[C@@H]1N[C@H]1C=C(CO)[C@@H](O)[C@H](O)[C@H]1O (stereo partly drawn) [Acarbose]	–	> 200	> 200	> 200	> 200	> 200	> 200	–
CCCC(=O)O[C@H]1CN2CC[C@H](O)[C@@H]2[C@@H](O)[C@@H]1O [Celgosivir (6-O-butanoylcastanospermine), 6-O-butanoylcastanospermine]	–	> 200	> 200	> 200	> 200	> 200	> 200	IC50 (SARS-CoV-2 [1]; [9]): > 200 µg/mL; lack of cytotoxicity up to the highest concentrations tested (Huh7-hACE2 cells [3]; viable nuclei, Huh7-hACE2 cells): 500 µM; EC50 (SARS-CoV-2 [4]): 1 ± 0.2 µM
OCCN1C[C@H](O)[C@@H](O)[C@H](O)[C@H]1CO [Glyset (Miglitol), miglitol]	active against at least one strain	90 (≈ 434 µM)	> 200	> 200	> 200	> 200	> 200	hygroscopicity [5]: extremely hygroscopic
CC(C)(C)NC(=O)N(CCCCCCN1C[C@H](O)[C@@H](O)[C@H](O)[C@H]1CO)C1CCCCC1 [IHVR-19029, 3-tert-butyl-1-cyclohexyl-1-[6-[(2R,3R,4R,5S)-3,4,5-trihydroxy-2-(hydroxymethyl)piperidin-1-yl]hexyl]urea]	active against at least three strain	5.5 (≈ 12.4 µM)	> 200	58.5 (≈ 132 µM)	> 200	48.5 (≈ 109 µM)	> 200	–
CCCCN1C[C@H](O)[C@@H](O)[C@H](O)[C@H]1CO [Miglustat (NB-DNJ), N-butyl-1-deoxynojirimycin]	active against at least one strain	19.2 (≈ 87.6 µM)	> 200	> 200	> 200	> 200	> 200	IC50 (SARS-Cov-2 SA (B.1.351)): 15.0 µg/mL (≈ 68.4 µM); EC50 (SARS-CoV-1): ~100 µg/mL (≈ 456 µM); lack of cytotoxicity up to the highest concentrations tested (Huh7-hACE2 cells [3]): 200 µM; EC50 (SARS-CoV-2 [4]): 19.9 ± 3.4 µM; cytotoxicity (cells in culture): little cytotoxicity; CC50 (Huh7-hACE2 cells [6]): > 1000 µM
[N-]=[N+]=Nc1ccc(NCCCCCCN2C[C@H](O)[C@@H](O)[C@H](O)[C@H]2CO)c([N+](=O)[O-])c1 [NAP-DNJ, N-(6′-[4″-azido-2″-nitrophenylamino]hexyl)-1-deoxynojirimycin]	active against at least three strain	0.1 (≈ 0.236 µM)	5.7 (≈ 13.4 µM)	1.7 (≈ 4.01 µM)	7.9 (≈ 18.6 µM)	1.4 (≈ 3.3 µM)	10.2 (≈ 24 µM)	IC50 (SARS-CoV-2 [1]; [9]): < 10 µg/mL; IC90 (SARS-CoV-2 [1]; [9]): < 40 µg/mL
OCC(CO)N[C@H]1C[C@](O)(CO)[C@@H](O)[C@H](O)[C@H]1O [Voglibose]	active against at least one strain	91.2 (≈ 341 µM)	> 200	> 200	> 200	> 200	> 200	–
